Measurements published in patent US20260364184A1, “COMPOUND BASED ON OXOISOINDOLINYL-SUBSTITUTED TETRAHYDROPYRIMIDINE-DIONE AND USE THEREOF” (GLUETACS THERAPEUTICS (SHANGHAI) CO., LTD., priority 2023, published 2026).

Legend:
[1] = system: Human non-small cell lung cancer cell line NCI-H1975; assay: Inhibition of H1975 cell proliferation (CellTiter luminescent viability); assay type: cell-based; conditions: Table ID1, EGFR inhibitor-based; H1975, 96 hours; read-out: Inhibitory activity (IC50, nM) on tumor cell proliferation, H1975
Experimental: The tumor cells used herein were cultured in a cell culture medium listed in table 3 at 37 °C in an incubator with 5% CO2. Prior to experimentation, all cell lines used were correctly identified by STR profiling, and tested negative for mycoplasma contamination using a mycoplasma detection kit through routine screenings.
The IC50 values of the compounds of the present disclosure (including the compounds in Table 1, Table 2, and Examples 1-468) were determined using the CellTiter-Meiluncell Luminescent Cell Viability Assay Kit from Dalian Meilun Biotech Co., Ltd. The detailed procedure is as follows: Tumor cells were seeded in 96-well cell culture plates at the densities specified in Table 4. On the following day, the test compounds of the present disclosure were subjected to serial dilution. The dilution can be performed according to one of the following two methods: • (1) The first dilution method: The test compounds of the present disclosure (including the compounds in Table 1, Table 2, and Examples 1-468) were subjected to 5-fold serial dilutions starting from a highest concentration of 2000 μM, resulting in a total of 9 concentrations from high to low (2000, 400, 80, 16, 3.2, 0.64, 0.128, 0.0256, 0.00512 μM). Subsequently, 0.5 μL of the test compound dilution was transferred into the 96-well plate containing the cells, with each well containing 100 μL of cell culture medium. […] Into the 96-well plate, the diluted test compounds and corresponding detection reagents were added, resulting in final test compound concentrations of 500 nM and 10 nM, respectively. The experimental procedure is described below using the diluted 2 μM test compound as an example.
0.5 μL of the aforementioned diluted compound of the present disclosure (including the compounds in Table 1, Table 2, and Examples 1-468) was added to the seeded cells in 100 μL of medium, yielding a final test compound concentration of 10 nM. After the cells were treated with the compounds of the present disclosure for a specified period, the cell viability assay reagent was added to the culture medium according to the kit's instructions to determine cell viability. […] All controls were treated using the same procedure as the compounds of the present disclosure. The growth inhibition curves for the compounds of the present disclosure were plotted using Prism GraphPad software, and the IC50 values were calculated therefrom.

[2] = molecular target: T1, EGFR (Homo sapiens, UniProt P00533); assay: Western blot degradation of EGFR; assay type: cell-based; conditions: H1975 Cell; 24 hours
T1 construct: L858R/T790M in cis, heterozygous with wild type), Western blot
Experimental: Conventional Western blot assay was performed to evaluate the effects of the compounds of the present disclosure on the expression of target proteins in cells.
(1) Cell Seeding and Protein Harvesting: The selected cells were processed according to the cell seeding procedure and protein harvesting procedure in Table II-2.
(2) To the collected supernatant, 5×SDS sample loading buffer was added, followed by denaturation at 95 °C for 5 minutes. The denatured samples were then separated by SDS-PAGE electrophoresis on a polyacrylamide gel. Proteins were transferred to a nitrocellulose membrane (0.45 μm NC membrane), blocked with blocking buffer at room temperature for 1 hour, and subjected to antibody incubation and development procedures according to the antibody manufacturer's instructions (Cell Signaling Technology).
Half-Maximal Degradation Concentration value (the drug concentration required for degrading proteins by 50%, abbreviated as DC50) reads method: comparing the grayscale values of Western blot bands from drug-treated samples with those from blank DMSO-treated controls, and identifying the drug concentration range at which the grayscale value is half that of the DMSO-treated control bands.
DC50 values can be calculated using ImageJ software to measure grayscale values of Western blot bands from drug-treated samples. The concentration-response curve is fitted to estimate the drug concentration corresponding to half the grayscale value.
Target protein remaining (%) refers to the percentage of target protein remaining in cells after treatment with protein degrader compounds.
Calculation method for target protein remaining (%): Use ImageJ software to measure grayscale values of Western blot bands from drug (protein degrader)-treated samples. The grayscale value of drug-treated bands is divided by that of internal control protein bands, and the resulting quotient is normalized to obtain the relative percentage of remaining target protein after protein degrader treatment.
Target protein degradation rate (%)=1−target protein remaining (%).

[3] = molecular target: T2, human Cereblon WT GST-tagged protein (CRBN) (Homo sapiens, UniProt Q96SW2); assay: CRBN binding by HTRF (Cereblon binding kit)
T2 construct: purchased CISBIO 64BDCRBNPEH
In short: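 GST-tagged human Cereblon WT was incubated 3 h at room temperature with compound, thalidomide-Re tracer and Eu anti-GST antibody. Final compound concentrations were 10 to 0.00064 µM (7 points) or 2 and 0.5 µM. Inhibition rate was calculated from HTRF 665/620 nm ratios versus solvent and blank controls.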

T2 sequence (Q96SW2 whole entry): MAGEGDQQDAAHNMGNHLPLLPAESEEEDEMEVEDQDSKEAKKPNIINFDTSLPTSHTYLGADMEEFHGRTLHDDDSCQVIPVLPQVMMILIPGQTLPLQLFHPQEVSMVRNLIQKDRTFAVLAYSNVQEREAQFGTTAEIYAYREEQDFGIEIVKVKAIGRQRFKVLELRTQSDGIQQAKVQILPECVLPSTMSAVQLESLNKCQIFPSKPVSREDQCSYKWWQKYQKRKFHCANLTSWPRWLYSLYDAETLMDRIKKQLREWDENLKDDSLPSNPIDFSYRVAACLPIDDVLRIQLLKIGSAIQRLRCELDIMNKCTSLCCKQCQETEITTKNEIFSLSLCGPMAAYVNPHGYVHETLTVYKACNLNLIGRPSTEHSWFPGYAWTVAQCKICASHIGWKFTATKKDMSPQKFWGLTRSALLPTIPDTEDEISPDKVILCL
T1 sequence (P00533 25-1210): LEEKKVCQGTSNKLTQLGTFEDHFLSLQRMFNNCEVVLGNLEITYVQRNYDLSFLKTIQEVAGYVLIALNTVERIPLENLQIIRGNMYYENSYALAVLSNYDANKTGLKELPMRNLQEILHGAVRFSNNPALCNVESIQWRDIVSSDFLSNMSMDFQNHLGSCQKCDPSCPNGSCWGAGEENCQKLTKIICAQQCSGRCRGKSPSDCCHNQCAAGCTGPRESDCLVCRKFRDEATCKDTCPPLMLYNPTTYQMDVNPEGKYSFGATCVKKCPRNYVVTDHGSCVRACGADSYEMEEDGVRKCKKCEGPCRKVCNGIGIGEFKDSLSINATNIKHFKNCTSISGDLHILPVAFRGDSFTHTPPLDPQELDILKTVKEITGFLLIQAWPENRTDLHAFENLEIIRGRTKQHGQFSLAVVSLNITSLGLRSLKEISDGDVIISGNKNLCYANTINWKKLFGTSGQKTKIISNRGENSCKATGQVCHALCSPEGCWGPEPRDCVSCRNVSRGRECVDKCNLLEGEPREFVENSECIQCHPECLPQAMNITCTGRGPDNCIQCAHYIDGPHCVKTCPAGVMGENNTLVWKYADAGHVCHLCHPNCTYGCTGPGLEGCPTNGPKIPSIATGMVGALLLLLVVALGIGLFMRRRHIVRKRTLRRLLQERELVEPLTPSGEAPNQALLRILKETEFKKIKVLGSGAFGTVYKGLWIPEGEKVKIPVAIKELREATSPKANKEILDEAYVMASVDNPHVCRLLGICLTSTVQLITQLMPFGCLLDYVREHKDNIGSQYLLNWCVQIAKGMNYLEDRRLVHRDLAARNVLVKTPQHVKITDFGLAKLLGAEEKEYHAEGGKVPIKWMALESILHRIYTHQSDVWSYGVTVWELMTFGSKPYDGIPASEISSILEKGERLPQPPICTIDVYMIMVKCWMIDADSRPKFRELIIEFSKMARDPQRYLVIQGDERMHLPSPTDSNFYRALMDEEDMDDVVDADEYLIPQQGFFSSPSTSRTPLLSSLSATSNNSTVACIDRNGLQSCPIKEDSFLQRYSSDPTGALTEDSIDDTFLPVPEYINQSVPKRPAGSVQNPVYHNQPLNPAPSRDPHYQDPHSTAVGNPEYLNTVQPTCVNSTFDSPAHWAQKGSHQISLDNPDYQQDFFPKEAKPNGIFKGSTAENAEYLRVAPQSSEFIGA
T1 sequence (Q96SW2 whole entry partner): as the sequence (Q96SW2 whole entry) above

| Compound | IC50 [1] | other results |
| --- | --- | --- |
| O=C1CCN(N2C(=O)c3ccc(CN4C5CCC4CN(c4ccc(-c6cc(F)c7c(c6)C(=O)N(C(C(=O)Nc6nccs6)c6ncn8c6CCC8)C7)cc4)C5)cc3C2=O)C(=O)N1 (centres unmarked) [GT-06251, 2-(6,7-dihydro-5H-pyrrolo[1,2-c]imidazol-1-yl)-2-(6-(4-(8-((2-(2,4-dioxotetrahydropyrimidin-1(2H)-yl)-1,3-dioxoisoindolin-5-yl)methyl)-3,8-diazabicyclo[3.2.1]octan-3-yl)phenyl)-4-fluoro-1-oxoisoindolin-2-yl)-N-(thiazol-2-yl)acetamide] | 100 to 130 nM | – |
| CN(C)C/C=C/C(=O)Nc1cc2c(Nc3ccc(F)c(Cl)c3)ncnc2cc1O[C@H]1CCOC1 [afatinib, Afatinib, reference compound] | 130 to 200 nM | – |
| O=C1CCN(N2C(=O)c3ccc(CN4CCN(c5ccc(-c6cc(F)c7c(c6)C(=O)N(C(C(=O)Nc6nccs6)c6ncn8c6CCC8)C7)cc5)CC4)cc3C2=O)C(=O)N1 (centres unmarked) [GT-06160, 2-(6,7-dihydro-5H-pyrrolo[1,2-c]imidazol-1-yl)-2-(6-(4-(4-((2-(2,4-dioxotetrahydropyrimidin-1(2H)-yl)-1,3-dioxoisoindolin-5-yl)methyl)piperazin-1-yl)phenyl)-4-fluoro-1-oxoisoindolin-2-yl)-N-(thiazol-2-yl)acetamide] | 100 to 130 nM | – |
| O=C1CCN(N2C(=O)c3ccc(CN4CCN(C5CCN(c6ccc(-c7cc(F)c8c(c7)C(=O)N(C(C(=O)Nc7nccs7)c7ncn9c7CCC9)C8)cc6)CC5(F)F)CC4)cc3C2=O)C(=O)N1 (centres unmarked) [GT-06316, 2-(6,7-dihydro-5H-pyrrolo[1,2-c]imidazol-1-yl)-2-(6-(4-(4-(4-((2-(2,4-dioxotetrahydropyrimidin-1(2H)-yl)-1,3-dioxoisoindolin-5-yl)methyl)piperazin-1-yl)-3,3-difluoropiperidin-1-yl)phenyl)-4-fluoro-1-oxoisoindolin-2-yl)-N-(thiazol-2-yl)acetamide] | 50 to 100 nM | – |
| O=C1CCN(N2C(=O)c3ccc(CN4CCN(C5CCN(c6ccc(-c7cc(F)c8c(c7)C(=O)N(C(C(=O)Nc7nccs7)c7ncn9c7CCC9)C8)cc6)CC5)CC4)cc3C2=O)C(=O)N1 (centres unmarked) [GT-06242, 2-(6,7-dihydro-5H-pyrrolo[1,2-c]imidazol-1-yl)-2-(6-(4-(4-(4-((2-(2,4-dioxotetrahydropyrimidin-1(2H)-yl)-1,3-dioxoisoindolin-5-yl)methyl)piperazin-1-yl)piperidin-1-yl)phenyl)-4-fluoro-1-oxoisoindolin-2-yl)-N-(thiazol-2-yl)acetamide] | 50 to 100 nM | – |
| C#Cc1cccc(Nc2ncnc3cc(OCCOC)c(OCCOC)cc23)c1 [erlotinib, Erlotinib, reference compound] | 1000 to 5000 nM | – |

Further lines, with some results ahead:

| IC50 [1] | Compound | other results |
| --- | --- | --- |
| 10 to 50 nM | O=C1CCN(N2C(=O)c3ccc(N4CCC(CN5C[C@H]6C[C@@H]5CN6c5ccc(-c6cc(F)c7c(c6)C(=O)N(C(C(=O)Nc6nccs6)c6ncn8c6CCC8)C7)cc5)CC4)cc3C2=O)C(=O)N1 (stereo partly drawn) [GT-06174, 2-(6,7-dihydro-5H-pyrrolo[1,2-c]imidazol-1-yl)-2-(6-(4-((1R,4R)-5-((1-(2-(2,4-dioxotetrahydropyrimidin-1(2H)-yl)-1,3-dioxoisoindolin-5-yl)piperidin-4-yl)methyl)-2,5-diazabicyclo[2.2.1]heptan-2-yl)phenyl)-4-fluoro-1-oxoisoindolin-2-yl)-N-(thiazol-2-yl)acetamide] | Degradation of substrate protein EGFR (substrate protein remaining %) [2]: A (0%≤substrate protein remaining %≤80%) |
| 10 to 50 nM | O=C1CCN(N2C(=O)c3cccc(N4CCC(CN5C[C@H]6C[C@@H]5CN6c5ccc(-c6cc(F)c7c(c6)C(=O)N(C(C(=O)Nc6nccs6)c6ncn8c6CCC8)C7)cc5)CC4)c3C2=O)C(=O)N1 (stereo partly drawn) [GT-06175, 2-(6,7-dihydro-5H-pyrrolo[1,2-c]imidazol-1-yl)-2-(6-(4-((1R,4R)-5-((1-(2-(2,4-dioxotetrahydropyrimidin-1(2H)-yl)-1,3-dioxoisoindolin-4-yl)piperidin-4-yl)methyl)-2,5-diazabicyclo[2.2.1]heptan-2-yl)phenyl)-4-fluoro-1-oxoisoindolin-2-yl)-N-(thiazol-2-yl)acetamide] | Degradation of substrate protein EGFR (substrate protein remaining %) [2]: A (0%≤substrate protein remaining %≤80%) |
| 10 to 50 nM | O=C1CCN(N2C(=O)c3cccc(N4CCC(CN5CCN(c6ccc(-c7cc(F)c8c(c7)C(=O)N(C(C(=O)Nc7nccs7)c7ncn9c7CCC9)C8)cc6)CC5)CC4)c3C2=O)C(=O)N1 (centres unmarked) [GT-06162, 2-(6,7-dihydro-5H-pyrrolo[1,2-c]imidazol-1-yl)-2-(6-(4-(4-((1-(2-(2,4-dioxotetrahydropyrimidin-1(2H)-yl)-1,3-dioxoisoindolin-4-yl)piperidin-4-yl)methyl)piperazin-1-yl)phenyl)-4-fluoro-1-oxoisoindolin-2-yl)-N-(thiazol-2-yl)acetamide] | – |
| < 10 nM | O=C1CCN(N2Cc3cc(CN4C[C@H]5C[C@@H]4CN5c4ccc(-c5cc(F)c6c(c5)C(=O)N(C(C(=O)Nc5nccs5)c5ncn7c5CCC7)C6)cc4)ccc3C2=O)C(=O)N1 (stereo partly drawn) [GT-06172, 2-(6,7-dihydro-5H-pyrrolo[1,2-c]imidazol-1-yl)-2-(6-(4-((1R,4R)-5-((2-(2,4-dioxotetrahydropyrimidin-1(2H)-yl)-1-oxoisoindolin-5-yl)methyl)-2,5-diazabicyclo[2.2.1]heptan-2-yl)phenyl)-4-fluoro-1-oxoisoindolin-2-yl)-N-(thiazol-2-yl)acetamide] | – |
| 10 to 50 nM | O=C1CCN(N2Cc3cc(CN4CCC(N5CCN(c6ccc(-c7cc(F)c8c(c7)C(=O)N(C(C(=O)Nc7nccs7)c7ncn9c7CCC9)C8)cc6)CC5)CC4)ccc3C2=O)C(=O)N1 (centres unmarked) [GT-06324, 2-(6,7-dihydro-5H-pyrrolo[1,2-c]imidazol-1-yl)-2-(6-(4-(4-(1-((2-(2,4-dioxotetrahydropyrimidin-1(2H)-yl)-1-oxoisoindolin-5-yl)methyl)piperidin-4-yl)piperazin-1-yl)phenyl)-4-fluoro-1-oxoisoindolin-2-yl)-N-(thiazol-2-yl)acetamide] | Inhibition Rate at 0.5 μM (%) ([3]; 0.5 μM): a1 (10% < a1 ≤ 20%); Inhibition Rate at 2 μM (%) ([3]; 2 μM): a5 (53% < a5 ≤ 60%) |
| < 10 nM | O=C1CCN(N2Cc3cc(CN4C5CCC4CN(c4ccc(-c6cc(F)c7c(c6)C(=O)N(C(C(=O)Nc6nccs6)c6ncn8c6CCC8)C7)cc4)C5)ccc3C2=O)C(=O)N1 (centres unmarked) [GT-06250, 2-(6,7-dihydro-5H-pyrrolo[1,2-c]imidazol-1-yl)-2-(6-(4-(8-((2-(2,4-dioxotetrahydropyrimidin-1(2H)-yl)-1-oxoisoindolin-5-yl)methyl)-3,8-diazabicyclo[3.2.1]octan-3-yl)phenyl)-4-fluoro-1-oxoisoindolin-2-yl)-N-(thiazol-2-yl)acetamide] | – |
| 10 to 50 nM | CN(Cc1ccc2c(c1)C(=O)N(N1CCC(=O)NC1=O)C2=O)C1CCN(c2ccc(-c3cc(F)c4c(c3)C(=O)N(C(C(=O)Nc3nccs3)c3ncn5c3CCC5)C4)cc2)CC1 (centres unmarked) [GT-05196, 2-(6,7-dihydro-5H-pyrrolo[1,2-c]imidazol-1-yl)-2-(6-(4-(4-(((2-(2,4-dioxotetrahydropyrimidin-1(2H)-yl)-1,3-dioxoisoindolin-5-yl)methyl)(methyl)amino)piperidin-1-yl)phenyl)-4-fluoro-1-oxoisoindolin-2-yl)-N-(thiazol-2-yl)acetamide] | – |
